# Measured values: ChEMBL document CHEMBL1201862, “PubChem BioAssay data set” (2004)
#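 Following 48 hours of exposure in 96-well plates, responses at five concentrations were used to interpolate endpoints linearly. GI50 = concentration required for 50% inhibition of growth.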 Activity calls are given as the source filed them. Cut-off read from the data, not from the text of the source: active = GI50 up to about 1.1 µM and inactive = higher.
# Experiments:
# Assay in all cases: inhibition of tumour cell growth, NCI panel, 48 h
# [1] = tested on: OVCAR-8
# [2] = tested on: HT-29
# [3] = tested on: U-251
# [4] = tested on: CAKI-1
# [5] = tested on: NCI-H522
# [6] = tested on: SK-MEL-5
# [7] = tested on: SF-295
# [8] = tested on: ACHN
# [9] = tested on: TK-10
# [10] = tested on: SF-268
# [11] = tested on: Malme-3M
# [12] = tested on: HCT-15
# [13] = tested on: UACC-257
# [14] = tested on: HL-60
# [15] = tested on: CCRF-CEM
# [16] = tested on: SW-620
# [17] = tested on: SK-MEL-2
# [18] = tested on: HOP-62
SMILES,GI50 [1],GI50 [2],GI50 [3],GI50 [4],GI50 [5],GI50 [6],GI50 [7],GI50 [8],GI50 [9],GI50 [10],GI50 [11],GI50 [12] [µM],GI50 [13],GI50 [14],GI50 [15],GI50 [16],GI50 [17],GI50 [18]
O=C1C=CC(=O)C2=C1[C@@H](O)C1CC=CC3C(=O)O[C@@H]2C31 (stereo partly drawn),39.5 µM (inactive),24.3 µM (inactive),> 77.8 µM (inactive),20.4 µM (inactive),15.5 µM (inactive),20.6 µM (inactive),39.5 µM (inactive),36.5 µM (inactive),28.2 µM (inactive),43.1 µM (inactive),19.1 µM (inactive),19.2,21.8 µM (inactive),18.2 µM (inactive),8.2 µM (inactive),22.4 µM (inactive),18.2 µM (inactive),> 100 µM (inactive)
N#C/C(=C\c1c(Cl)cccc1Cl)c1ccccc1,16.4 µM (inactive),4.19 µM (inactive),4.39 µM (inactive),8.47 µM (inactive),14.2 µM (inactive),5.51 µM (inactive),4.43 µM (inactive),7.59 µM (inactive),15.8 µM (inactive),18.5 µM (inactive),10.2 µM (inactive),4.16,8.65 µM (inactive),3.6 µM (inactive),2.88 µM (inactive),2.74 µM (inactive),5.78 µM (inactive),3.83 µM (inactive)
CC(CCC(=O)O)c1ccc(Br)cc1 (stereo not drawn),> 100 µM (inactive),> 100 µM (inactive),> 100 µM (inactive),> 100 µM (inactive),> 100 µM (inactive),> 100 µM (inactive),> 100 µM (inactive),> 100 µM (inactive),> 100 µM (inactive),> 100 µM (inactive),> 100 µM (inactive),> 100,> 100 µM (inactive),> 100 µM (inactive),> 100 µM (inactive),> 100 µM (inactive),> 100 µM (inactive),> 100 µM (inactive)
COc1cc2c(c(OC)c1OC)[C@@H]1CCCCC[C@@H]1CCC2=O,> 100 µM (inactive),> 71.6 µM (inactive),> 92.5 µM (inactive),> 100 µM (inactive),> 66.7 µM (inactive),57.5 µM (inactive),> 100 µM (inactive),> 100 µM (inactive),> 100 µM (inactive),76 µM (inactive),> 100 µM (inactive),> 75,59.7 µM (inactive),22.9 µM (inactive),22.8 µM (inactive),> 100 µM (inactive),> 92.9 µM (inactive),> 100 µM (inactive)
CCCCCCCCCCCOc1ccc(C(=O)C(=O)c2ccc(OCCCCCCCCCCC)c(OCCCCCCCCCCC)c2)cc1OCCCCCCCCCCC,> 100 µM (inactive),> 100 µM (inactive),> 100 µM (inactive),> 100 µM (inactive),> 100 µM (inactive),> 100 µM (inactive),> 100 µM (inactive),> 100 µM (inactive),> 100 µM (inactive),> 100 µM (inactive),> 100 µM (inactive),> 100,> 100 µM (inactive),> 100 µM (inactive),> 100 µM (inactive),> 100 µM (inactive),> 100 µM (inactive),> 100 µM (inactive)
CC(=O)OC1CCC2OOC1O2 (stereo not drawn),> 100 µM (inactive),> 100 µM (inactive),> 100 µM (inactive),> 100 µM (inactive),> 100 µM (inactive),> 100 µM (inactive),> 100 µM (inactive),> 100 µM (inactive),> 100 µM (inactive),> 100 µM (inactive),> 100 µM (inactive),> 100,> 100 µM (inactive),> 100 µM (inactive),> 100 µM (inactive),> 100 µM (inactive),> 100 µM (inactive),> 100 µM (inactive)
